# In ChEMBL document CHEMBL1201862, “PubChem BioAssay data set” (2004):
# Calls of active or inactive are those of the source.
# What was measured:
# [1] = target: DNA dC->dU-editing enzyme APOBEC-3A (Homo sapiens, UniProt P31941); test: A3A deaminase inhibition for selectivity – biochemical, dose response (AID 504722); type: functional
# [2] = target: DNA dC->dU-editing enzyme APOBEC-3G (Homo sapiens, UniProt Q9HC16); test: Dose Response confirmation of small molecule APOBEC3G DNA Deaminase Inhibitors via a fluorescence-based single-stranded DNA deaminase assay. [Related pubchem assays (depositor defined):AID493012, AID493028]; type: functional
# Chain of DNA dC->dU-editing enzyme APOBEC-3G (Q9HC16 whole entry): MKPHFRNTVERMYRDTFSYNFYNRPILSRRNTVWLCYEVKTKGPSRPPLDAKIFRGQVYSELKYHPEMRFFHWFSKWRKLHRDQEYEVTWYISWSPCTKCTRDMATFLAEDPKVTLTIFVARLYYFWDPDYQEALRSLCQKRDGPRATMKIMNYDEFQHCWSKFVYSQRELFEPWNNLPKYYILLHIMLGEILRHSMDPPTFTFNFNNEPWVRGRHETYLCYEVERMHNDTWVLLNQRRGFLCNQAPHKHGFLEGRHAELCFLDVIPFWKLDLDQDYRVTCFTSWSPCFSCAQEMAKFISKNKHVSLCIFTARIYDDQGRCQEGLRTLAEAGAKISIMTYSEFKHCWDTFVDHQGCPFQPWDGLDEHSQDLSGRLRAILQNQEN
# [3] = A cytotoxicity screen of small molecule inhibitors of the PhoP region in Salmonella typhi identified in the primary screen. [Related pubchem assays: 1850, 1864, 1985 ]; type: functional
# [4] = viability of uninfected HEp-2 cells – cell-based, HTS, cytotoxicity control for RSV inhibitor project, dose response (AID 2410); type: functional; details: human respiratory syncytial virus
# [5] = target: T1, Tyrosine-protein phosphatase non-receptor type 7 (Homo sapiens, UniProt P35236); type: functional
# T1 sequence (P35236 whole entry): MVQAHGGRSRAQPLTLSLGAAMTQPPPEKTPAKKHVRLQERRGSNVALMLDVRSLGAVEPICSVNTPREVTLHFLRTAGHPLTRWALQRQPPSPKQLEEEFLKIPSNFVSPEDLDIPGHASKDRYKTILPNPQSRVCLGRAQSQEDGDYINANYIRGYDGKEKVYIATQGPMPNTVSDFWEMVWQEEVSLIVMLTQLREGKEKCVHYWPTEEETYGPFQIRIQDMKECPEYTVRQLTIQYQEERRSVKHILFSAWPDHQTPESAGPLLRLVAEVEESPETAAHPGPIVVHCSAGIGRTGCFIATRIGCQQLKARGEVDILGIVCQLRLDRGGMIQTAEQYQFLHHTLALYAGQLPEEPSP
# [6] = target: Glyceraldehyde-3-phosphate dehydrogenase (Homo sapiens, UniProt P04406)
# Chain of Glyceraldehyde-3-phosphate dehydrogenase (P04406 whole entry): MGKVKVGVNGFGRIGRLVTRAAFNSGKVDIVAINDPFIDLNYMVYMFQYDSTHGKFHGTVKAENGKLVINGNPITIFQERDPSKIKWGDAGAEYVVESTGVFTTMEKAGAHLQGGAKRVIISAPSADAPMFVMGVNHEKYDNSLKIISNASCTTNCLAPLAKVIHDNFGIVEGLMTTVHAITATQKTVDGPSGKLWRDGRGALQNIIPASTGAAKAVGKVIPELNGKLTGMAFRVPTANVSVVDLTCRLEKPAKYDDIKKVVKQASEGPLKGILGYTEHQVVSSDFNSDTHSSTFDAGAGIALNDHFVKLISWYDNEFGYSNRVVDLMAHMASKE
# [7] = target: T2, Dual specificity protein phosphatase 6 (Rattus norvegicus, UniProt Q64346)
# T2 sequence (Q64346 whole entry): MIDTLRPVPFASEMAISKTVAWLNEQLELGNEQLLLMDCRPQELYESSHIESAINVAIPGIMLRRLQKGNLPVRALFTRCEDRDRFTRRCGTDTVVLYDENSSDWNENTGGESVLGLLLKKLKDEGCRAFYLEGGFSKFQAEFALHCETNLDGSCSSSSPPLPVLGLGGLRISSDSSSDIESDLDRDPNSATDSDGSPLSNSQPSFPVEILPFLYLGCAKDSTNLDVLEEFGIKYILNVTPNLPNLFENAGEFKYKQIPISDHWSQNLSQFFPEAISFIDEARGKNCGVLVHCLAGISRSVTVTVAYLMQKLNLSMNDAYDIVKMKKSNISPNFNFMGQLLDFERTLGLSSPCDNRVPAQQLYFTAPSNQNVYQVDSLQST
# [8] = target: T2, Dual specificity protein phosphatase 6; type: functional
# [9] = target: Luciferin 4-monooxygenase (Photinus pyralis, UniProt P08659); test: Counter Screen for Luciferase-based Assay Positives. [Related pubchem assays: 620, 618, 411 ]
# Chain of Luciferin 4-monooxygenase (P08659 whole entry): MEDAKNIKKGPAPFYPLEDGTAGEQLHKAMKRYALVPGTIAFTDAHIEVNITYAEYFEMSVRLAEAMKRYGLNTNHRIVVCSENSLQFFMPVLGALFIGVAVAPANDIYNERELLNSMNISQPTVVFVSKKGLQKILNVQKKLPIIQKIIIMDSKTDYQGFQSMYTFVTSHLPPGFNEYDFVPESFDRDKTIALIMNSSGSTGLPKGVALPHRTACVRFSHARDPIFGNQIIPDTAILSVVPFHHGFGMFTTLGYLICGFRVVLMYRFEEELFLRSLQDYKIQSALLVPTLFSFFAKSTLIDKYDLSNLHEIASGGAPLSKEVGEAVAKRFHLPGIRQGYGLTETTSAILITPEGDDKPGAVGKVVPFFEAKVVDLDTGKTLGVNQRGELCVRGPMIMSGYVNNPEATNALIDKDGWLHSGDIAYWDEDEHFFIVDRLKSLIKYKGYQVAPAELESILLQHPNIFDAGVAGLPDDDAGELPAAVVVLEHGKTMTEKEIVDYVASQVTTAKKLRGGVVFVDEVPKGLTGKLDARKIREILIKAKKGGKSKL
# HT-1080 = test: HT1080 cell viability loss – fluorescence readout (AID 620); type: functional, cell-based; details: Homo sapiens
# Troponin, cardiac muscle = Troponin, cardiac muscle (Homo sapiens, UniProt P19429+P45379+P63316); test: Fluorescence-based biochemical high throughput dose response assay for activators of the calcium sensitivity of cardiac Regulated Thin Filaments (RTF). [Related pubchem assays (depositor defined):AID493008, AID493018, AID504382, AID504383]; type: protein-complex assay
# Protein skinhead-1 = target: T3, Protein skinhead-1 (Caenorhabditis elegans, UniProt P34707); type: functional
# T3 sequence (P34707 whole entry): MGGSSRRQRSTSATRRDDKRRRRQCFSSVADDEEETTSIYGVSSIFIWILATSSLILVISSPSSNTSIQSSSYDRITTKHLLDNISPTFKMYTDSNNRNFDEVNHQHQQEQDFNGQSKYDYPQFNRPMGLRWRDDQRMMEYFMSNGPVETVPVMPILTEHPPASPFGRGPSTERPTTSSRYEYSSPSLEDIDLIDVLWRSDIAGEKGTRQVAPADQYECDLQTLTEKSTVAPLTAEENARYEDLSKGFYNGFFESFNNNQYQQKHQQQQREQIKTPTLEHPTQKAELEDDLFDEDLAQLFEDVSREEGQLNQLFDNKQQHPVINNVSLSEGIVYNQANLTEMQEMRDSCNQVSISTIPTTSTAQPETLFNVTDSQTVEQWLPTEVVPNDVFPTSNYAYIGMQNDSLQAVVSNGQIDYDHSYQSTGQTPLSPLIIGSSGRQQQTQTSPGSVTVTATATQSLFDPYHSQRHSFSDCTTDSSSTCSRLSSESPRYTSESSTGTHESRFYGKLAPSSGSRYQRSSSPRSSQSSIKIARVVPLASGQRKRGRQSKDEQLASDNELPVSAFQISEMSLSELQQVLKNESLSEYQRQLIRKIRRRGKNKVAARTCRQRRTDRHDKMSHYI
# Chain of DNA dC->dU-editing enzyme APOBEC-3A (P31941 whole entry): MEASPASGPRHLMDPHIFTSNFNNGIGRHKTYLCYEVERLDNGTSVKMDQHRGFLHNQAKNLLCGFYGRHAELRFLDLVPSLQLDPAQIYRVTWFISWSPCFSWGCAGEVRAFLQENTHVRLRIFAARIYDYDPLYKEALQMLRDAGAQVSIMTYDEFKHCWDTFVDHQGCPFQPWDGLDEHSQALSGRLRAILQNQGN
structure (smiles),measurement,setting,value
C=CCn1c(S)nnc1-c1cccc(S(=O)(=O)N(CC)CC)c1,IC50,[1],> 100 µM (inactive)
same,IC50,[2],5.67 µM (active)
CN(C)c1nnnn1-c1ccc(Oc2ccccc2)cc1,EC50,[3],> 50 µM (active)
Cc1ccc(S(=O)(=O)N2CCCC(c3nc(O)c4nnn(Cc5ccc6c(c5)OCCO6)c4n3)C2)cc1 (centres undefined),CC50,[4],14.4 µM (active)
same,IC50,cells,10.2 µM (active)
O=C(O)C1Nc2c(cccc2N2CCOCC2)C2C=CCC12 (centres undefined),IC50,[5],3.87 µM (active)
same,IC50,[6],> 100 µM (not active)
same,IC50,[7],44 µM (active)
same,IC50,[8],60.1 µM (active)
CN1C(=O)C2(Nc3ccccc3-c3nc4ccccc4n32)c2ccccc21 (centres undefined),EC50,[3],> 50 µM (active)
Fc1ccc(-c2nnc(-c3ccc(Cl)cc3Cl)o2)cc1,CC50,[4],37 µM (active)
same,EC50,[9],2.56 µM (active)
same,EC50,HT-1080,> 50 µM (not active)
same,EC50,"Troponin, cardiac muscle",> 71.5 µM (inactive)
same,IC50,Protein skinhead-1,> 100 µM (inactive)
O=[N+]([O-])c1ccccc1S(=O)(=O)Nc1cccc(-c2ccc(N3CCCC3)nn2)c1,CC50,[4],40.6 µM (active)
same,IC50,cells,5.15 µM (active)
COc1ccc(C(=O)Nc2nc3c(s2)CCCC3)cc1S(=O)(=O)N1CCCc2ccccc21,CC50,[4],3.66 µM (active)
same,IC50,cells,5.95 µM (active)
